According to patent US11154529B2, “Phosphaplatin liquid formulations” (Phosplatin Therapeutics Inc., priority 2016, dated 2021):

Legend:
[1] = cited from earlier work
[2] = Design of Experiment study on pyrophosphate ion stabilization, stability at 60° C.; format: physicochemical; conditions: added pyrophosphate ion as little as ~0.25 molar equivalent
Text: Specifically the presence of pyrophosphate results in the rapid disappearance of the (R,R)-pyrodach-2 dimer impurity and the RRT-3.1-3.2 impurity.

Q: For `O=P1(O)OP(=O)(O)[O][Pt]2([NH][C@@H]3CCCC[C@H]3[NH]2)[O]1` (stereo partly drawn) [(R,R)-pyrodach-2, (R,R)-trans-1,2-cyclohexanediamine-(dihydrogenpyrophosphato)platinum(II)], which “pKa values of the two acid groups (first)” value [1] is on record?
A: approximately 2.6

Q: What about the “pKa values of the two acid groups (second)” value [1] of the same compound?
A: ~4.4

Q: And the “overall rate of (R,R)-pyrodach-2 degradation and impurity appearance” value [2]?
A: dramatic decrease
